Laboratory results taken from patent US20250188092A1, “RIFAMYCIN ANALOGS” (THE REGENTS OF THE UNIVERSITY OF MICHIGAN, priority 2021, published 2025).
Where two headings read alike, the source gives them in different places.

Tests used:
E. coli WT RNAP = biological target: T1, E. coli WT RNAP (Escherichia coli, UniProt P0A8V2); experiment: biochemical
T1 construct: made in house

[1] = biological target: T2, E. coli D516V (RIF^R) RNAP (Escherichia coli, UniProt P0A8V2, D516V); experiment: biochemical
T2 construct: made in house

[2] = biological target: T3, E. coli S531L (RIF^R) RNAP (Escherichia coli, UniProt P0A8V2, S531L); experiment: biochemical
T3 construct: made in house

VERO cells (ATCC CRL-81) = experiment: Vero cell toxicity; assay type: cell-based; conditions: Chlorocebus sabaeus, Vero; 72 hours exposure
Experimental: Cytotoxicity for a mammalian cell line was determined by exposing VERO cells (ATCC CRL-81) to serial dilutions of test compounds for 72 hours, followed by addition of resazurin and measurement of fluorescence after 4 hours incubation (Choules, et al., Antimnicrob. Agents Chemother. 2019, 63, e02204-02218).

MTB H37Rv ATCC 27294 = experiment: MIC, microplate Alamar Blue assay (MABA); assay type: cell-based, Mycobacterium tuberculosis; conditions: for MIC: Mycobacterium tuberculosis, MTB H37Rv ATCC 27294, microplate Alamar Blue assay, lowest concentration giving ≥90% reduction in fluorescence, read-out: MIC90 MABA
M. tuberculosis H37Rv = experiment: Minimum bactericidal concentration (MBC, CFU Assay); assay type: cell-based, Mycobacterium tuberculosis; conditions: for MBC: Mycobacterium tuberculosis, 168 h, Day 7, M. tuberculosis H37Rv, ≥99% reduction in colony forming units, read-out: MBC99 Day 7 (CFU Assay) MBC99
DPX2 cells = conditions: for DPX2 Viability @ 6.25 μM: 24 h; for DPX2 Viability @ 25 μM: human
[3] = CFU Assay MBC99 relative to rifampin (RMP = 1)

| SMILES | IC50 (E. coli WT RNAP) | IC50 [1] | IC50 [2] | IC50 (VERO cells (ATCC CRL-81)) | MIC90 MABA Rel to RMP (MTB H37Rv ATCC 27294) | MIC (MTB H37Rv ATCC 27294) | MBC99 Day 7 (CFU Assay) MBC99 Rel to RMP (M. tuberculosis H37Rv) | MBC (M. tuberculosis H37Rv) | DPX2 Viability @ 6.25 μM (DPX2 cells) | DPX2 Viability @ 25 μM (DPX2 cells) | MBC99 Day 7 (CFU Assay) MBC99 Rel to RMP (M. tuberculosis H37Rv; [3]) |
| --- | --- | --- | --- | --- | --- | --- | --- | --- | --- | --- | --- |
| CO[C@H]1/C=C/O[C@@]2(C)Oc3c(C)c(O)c4c(=O)c(c5oc6cc(N7CCN(CC(C)C)CC7)cc(OCCCCN7CCOCC7)c6nc-5c4c3C2=O)NC(=O)/C(C)=C\C=C\[C@H](C)[C@H](O)[C@@H](C)[C@@H](O)[C@@H](C)[C@H](OC(C)=O)[C@@H]1C [Compound 6a, (7S,9E,11S,12R,13S,14R,15R,16R,17S,18S,19E,21Z)-2,15,17-Trihydroxy-11-methoxy-3,7,12,14,16,18,22-heptamethyl-30-[4-(2-methylpropyl)piperazin-1-yl]-32-[4-(morpholin-4-yl)butoxy]-6,23,37-trioxo-8,27,38-trioxa-24,34-diazahexacyclo[23.11.1.1^4,7.0^5,36.0^26,35.0^28,33]octatriaconta-1(36)2,4,9,19,21,25,28(33)29,31,34-undecaen-13-yl acetate] | 0.006 µM | 39 µM | 80 µM | > 8 µM | 0.80 | 0.092 µM | 0.08 | 0.01 µM | 102% | 86% |  |
| CO[C@H]1/C=C/O[C@@]2(C)Oc3c(C)c(O)c4c(=O)c(c5oc6cc(N7CCN(CC(C)C)CC7)cc(OCCCCN7CCN(CCn8ccnc8)CC7)c6nc-5c4c3C2=O)NC(=O)/C(C)=C\C=C\[C@H](C)[C@H](O)[C@@H](C)[C@@H](O)[C@@H](C)[C@H](OC(C)=O)[C@@H]1C [Compound 6b, (7S,9E,11S,12R,13S,14R,15R,16R,17S,18S,19E,21Z)-2,15,17-trihydroxy-32-(4-{4-[2-(1H-imidazol-1-yl)ethyl]piperazin-1-yl}butoxy)-11-methoxy-3,7,12,14,16,18,22-heptamethyl-30-[4-(2-methylpropyl)piperazin-1-yl]-6,23,37-trioxo-8,27,38-trioxa-24,34-diazahexacyclo[23.11.1.1^4,7.0^5,36.0^26,35.0^28,33]octatriaconta-1(36)2,4,9,19,21,25,28(33)29,31,34-undecaen-13-yl acetate] | 0.006 µM | 51 µM | 52 µM | > 8 µM | 1.6 | 0.021 µM |  | 0.03 µM | 120% | 57% | 0.23 |
| CO[C@H]1/C=C/O[C@@]2(C)Oc3c(C)c(O)c4c(=O)c(c5oc6cc(N7CCN(C)CC7)cc(OCCCCN7CCN(C(=O)Cn8ccnc8)CC7)c6nc-5c4c3C2=O)NC(=O)/C(C)=C\C=C\[C@H](C)[C@H](O)[C@@H](C)[C@@H](O)[C@@H](C)[C@H](OC(C)=O)[C@@H]1C [Compound 6c, (7S,9E,11S,12R,13S,14R,15R,16R,17S,18S,19E,21Z)-2,15,17-Trihydroxy-32-(4-{4-[2-(1H-imidazol-1-yl)acetyl]piperazin-1-yl}butoxy)-11-methoxy-3,7,12,14,16,18,22-heptamethyl-30-(4-methylpiperazin-1-yl)-6,23,37-trioxo-8,27,38-trioxa-24,34-diazahexacyclo[23.11.1.1^4,7.0^5,36.0^26,35.0^28,33]octatriaconta-1(36)2,4,9,19,21,25,28(33)29,31,34-undecaen-13-yl acetate] | 0.01 µM | 12 µM | 230 µM | 53 µM | 2.7 | 0.039 µM |  | 0.05 µM | 108% | 111% | 0.38 |
| CO[C@H]1/C=C/O[C@@]2(C)Oc3c(C)c(O)c4c(=O)c(c5oc6cc(N7CCN(CC(C)C)CC7)cc(OCCCCN7CCN(C(=O)Cn8ccnc8)CC7)c6nc-5c4c3C2=O)NC(=O)/C(C)=C\C=C\[C@H](C)[C@H](O)[C@@H](C)[C@@H](O)[C@@H](C)[C@H](OC(C)=O)[C@@H]1C [Compound 6d, (7S,9E,11S,12R,13S,14R,15R,16R,17S,18S,19E,21Z)-2,15,17-Trihydroxy-32-(4-{4-[2-(1H-imidazol-1-yl)acetyl]piperazin-1-yl}butoxy)-11-methoxy-3,7,12,14,16,18,22-heptamethyl-30-[4-(2-methylpropyl)piperazin-1-yl]-6,23,37-trioxo-8,27,38-trioxa-24,34-diazahexacyclo[23.11.1.1^4,7.0^5,36.0^26,35.0^28,33]octatriaconta-1(36)2,4,9,19,21,25,28,30,32,34-undecaen-13-yl acetate] | 0.008 µM | 59 µM | 93 µM | > 8 µM | 1.3 | 0.024 µM |  | 0.03 µM | 104% | 90% | 0.23 |
| CO[C@H]1/C=C/O[C@@]2(C)Oc3c(C)c(O)c4c(=O)c(c5oc6cc(N7CCN(CC(C)C)CC7)cc(OCc7cccc(CN8CCN(C(=O)Cn9ccnc9)CC8)c7)c6nc-5c4c3C2=O)NC(=O)/C(C)=C\C=C\[C@H](C)[C@H](O)[C@@H](C)[C@@H](O)[C@@H](C)[C@H](OC(C)=O)[C@@H]1C [Compound 12c, (7S,9E,11S,12R,13S,14R,15R,16R,17S,18S,19E,21Z)-2,15,17-Trihydroxy-32-{[3-({4-[2-(1H-imidazol-1-yl)acetyl]piperazin-1-yl}methyl)phenyl]methoxy}-11-methoxy-3,7,12,14,16,18,22-heptamethyl-30-[4-(2-methylpropyl)piperazin-1-yl]-6,23,37-trioxo-8,27,38-trioxa-24,34-diazahexacyclo[23.11.1.1^4,7.0^5,36.0^26,35.0^28,33]octatriaconta-1(36)2,4,9,19,21,25,28,30,32,34-undecaen-13-yl acetate] | 0.014 µM | 17 µM | 66 µM | > 8 µM | 0.12 | 0.0048 µM |  | < 0.02 µM | 107% | 95% | <0.08 |
| CO[C@H]1/C=C/O[C@@]2(C)Oc3c(C)c(O)c4c(=O)c(c5oc6cccc(OCc7ccc(CN8CCN(C(=O)Cn9ccnc9)CC8)cc7)c6nc-5c4c3C2=O)NC(=O)/C(C)=C\C=C\[C@H](C)[C@H](O)[C@@H](C)[C@@H](O)[C@@H](C)[C@H](OC(C)=O)[C@@H]1C [Compound 16b, (7S,9E,11S,12R,13S,14R,15R,16R,17S,18S,19E,21Z)-2,15,17-Trihydroxy-32-{[4-({4-[2-(1H-imidazol-1-yl)acetyl]piperazin-1-yl}methyl)phenyl]methoxy}-11-methoxy-3,7,12,14,16,18,22-heptamethyl-6,23,37-trioxo-8,27,38-trioxa-24,34-diazahexacyclo[23.11.1.1^4,7.0^5,36.0^26,35.0^28,33]octatriaconta-1(36)2,4,9,19,21,25,28,30,32,34-undecaen-13-yl acetate] | 0.005 µM | 24 µM | 160 µM | > 8 µM | 1.6 | 0.029 µM |  | 0.02 µM | 117% | 76% | 0.15 |
| CO[C@H]1/C=C/O[C@@]2(C)Oc3c(C)c(O)c4c(=O)c(c5oc6cc(N7CCN(CC(C)C)CC7)cc(OCc7ccc(CN8CCN(C(=O)Cn9ccnc9)CC8)cc7)c6nc-5c4c3C2=O)NC(=O)/C(C)=C\C=C\[C@H](C)[C@H](O)[C@@H](C)[C@@H](O)[C@@H](C)[C@H](OC(C)=O)[C@@H]1C [Compound 17c, (7S,9E,11S,12R,13S,14R,15R,16R,17S,18S,19E,21Z)-2,15,17-Trihydroxy-32-{[4-({4-[2-(1H-imidazol-1-yl)acetyl]piperazin-1-yl}methyl)phenyl]methoxy}-11-methoxy-3,7,12,14,16,18,22-heptamethyl-30-[4-(2-methylpropyl)piperazin-1-yl]-6,23,37-trioxo-8,27,38-trioxa-24,34-diazahexacyclo[23.11.1.1^4,7.0^5,36.0^26,35.0^28,33]octatriaconta-1(36)2,4,9,19,21,25,28,30,32,34-undecaen-13-yl acetate] | 0.02 µM | 12 µM | 100 µM | > 8 µM | 1.3 | 0.023 µM |  | 0.02 µM | 102% | 94% | 0.15 |
